This note sets out measurements from patent publication US20050181360A1, “Assay for cell cycle modulators based on the modulation of cyclin d1 degradation in response to ionising radiation” (priority 2000, published 2005).

What all share (format): cell-based
The test system of experiment [1] is cyclin D1 protein in MCF-7 cells. The experiment in a line: Effect of GSK3 inhibition by Li+ on IR-induced cyclin D1 degradation, immunoblot. The text has this: Activation of the PI3K-PKB/Akt-GSK-3β pathway leads to cyclin D1 degradation through phosphorylation of threonine 286 of cyclin D1 by GSK3-β (Diehl et al., 1998). We therefore asked whether this pathway is also activated by IR and is involved in stress-induced degradation of cyclin D1. To investigate the co-immunoprecipitation of GSK3-β with CDK4-cyclin D1 complex, MCF-7 cells were subjected to treatment with proteasome inhibitor cbz-LLL and IR. 5% of the cell lysates or the immunoprecipitated protein complexes were separated on 10% SDS-PAGE and immunoblotted against cyclin-D1, CDK4, GSK3- and control JNK1 proteins. […] We used proteasome inhibitors to protect cyclin D1 from degradation thereby making a direct comparison between the different treatments possible. […] MCF-7 cells were treated with increasing concentrations of LiCl or control KCl and subsequently IR (20 Gy). Lysates were prepared after 2 hours, separated on 10% SDS-PAGE and immunoblotted sequentially with anti-cyclin D1 and anti-p53 antibodies. If this pathway is involved, Li^+ ions should inhibit cyclin D1 degradation.
A general note: Immunoblotting shows a protein as a band on a membrane.

The test system is the same in experiment [2]. The experiment in a line: IR-induced cyclin D1 downregulation with proteasome inhibitor, Western blot. The settings on record: 5 mM cbz-LLL added after IR for two hours. The protocol:
(§1) We then asked whether cyclin D1 protein stability was affected in response to IR using a pulse-chase experiment. MCF-7 cells were pulse-labelled with [^35S]-methionine and after IR chased with excess cold methionine for the indicated periods of time. Cyclin D1 protein was immunoprecipitated, separated on SDS-PAGE and detected by PhosphorImager. Cyclin D1 was destabilized immediately after IR; its half-life decreased from 40 minutes to less then 20 (FIG. 2). To ask whether the IR-induced degradation of cyclin D1 is mediated by the proteasome, MCF-7 cells were exposed to IR and subsequently the proteasome inhibitor cbz-LLL was added at increasing concentrations for two hours. After two hours, protein lysates were made, separated on 10% SDS PAGE, and Western blotted sequentially with antibodies against cyclin D1, p53 and cyclin E proteins.

For experiment [3], the system named is CDK2 activity precipitated from MCF-7/E6 cells. The experiment in a line: Immunoprecipitation-kinase assay of CDK2 activity after IR (histone H1 substrate). The settings on record: two hours after IR, 10 mM cbz-LLL. The protocol:
We next determined the CDK2 activity precipitated from MCF-7/E6 cells treated with IR. Cells were treated as above, except that cells were harvested after 2 hours. […] Identical results were obtained with parental MCF-7 cells. Therefore, protein degradation seems to be necessary for fast CDK2 kinase inhibition after genotoxic stress.
We then examined the CDK2 activity in response to IR of cells transiently over-expressing either D1TA or D1TA-L32A proteins. MCF-7/E6 cells were electroporated as above, irradiated (20 Gy) and harvested 2 hours later. CDK2 protein was immunoprecipitated and its kinase activity was examined using Histone 1 as a substrate (H1). CDK2 protein level was determined by immunoblotting (IB) of the same membrane with an antibody against CDK2.
To determine CDK2 activity, specific complexes from either MCF-7/Neo or MCF-7/E6 cells were immunoprecipitated from extracts using anti-CDK2 antibody (M-2). The beads were washed two additional times with kinase buffer (20 mM Tris HCl pH:7.4, 4 mM MgCl2 and 0.5 mM DTT) and kinase reaction was carried out in […] volume kinase buffer containing […] histone-H1 as a specific substrate, […] [γ-^32P]-ATP (5000 mCi/mmol, Amersham) and […] ATP at 37 C for 30 minutes. GSK3-β activity, was determined exactly as described in (van Weeren et al., 1998) using peptide PG-S1 as a substrate.

A further experiment relates to cyclin D1 protein. In words: Cyclin D1 degradation in response to genotoxic agents. The protocol:
as §1

Another experiment deals with MCF-7 cells. The experiment in a line: IR-induced degradation of transfected cyclin mutants, immunoblot. Particulars: transfected MCF-7 cells, IR 20 Gy, two hours. The source says: To map the motif in cyclin D1 that mediates its degradation by genotoxic stress we analyzed several mutants of D1 by expression in MCF-7 cells. In all these experiments a co-transfected GFP construct was used to confirm equal transfection efficiencies between irradiated- and control cells. When cyclin D1 was mutated at a site within the cyclin box that is essential for activation of CDK4/6 (mutant K112E), D1 degradation by IR remained. The same result was obtained when the pRb family binding site in cyclin D1 was mutated (LxCxE mutant). We therefore conclude that D1 induced degradation by genotoxic stress is independent of both CDK4/6 kinase and pRb binding.
In the yeast Saccharomyces cerevisiae, degradation of the cyclin C homologue Ume3p can be induced by various stress signals such as heat, oxidative stress and ethanol shock (Cooper et al., 1997; Cooper et al., 1999). Three regions in Ume3p are required for stress-induced degradation, including a destruction box at the amino terminus (RxxL motif), the amino terminal region of the cyclin box and a PEST domain. […] Since cyclin D2 is not degraded by the genotoxic stress response we mutated cyclin D1 to the corresponding amino acid in cyclin D2. […] To further investigate this, we performed a pulse-chase experiment with the cyclin D1 L32A destruction box mutant to determine its half-life. […]

Residues, ends and D or L forms follow the SMILES beside them. *: point of attachment. Cbz = O=C(OCc1ccccc1)*

For `[Cl-].[Li+]` [Li^+ ions, LiCl], in experiment [1] (increasing concentrations of LiCl, IR 20 Gy, lysates after 2 hours), the “effect on cyclin D1 degradation by IR” value is listed as “no detectable effect”. The “cyclin D1 levels in non-irradiated cells” value in experiment [1] (non-irradiated MCF-7 cells) is on record as “increase”.
In the case of `CC(C)C[C@@H](C=O)NC(=O)[C@H](CC(C)C)NC(=O)[C@H](CC(C)C)NC(=O)OCc1ccccc1` [cbz-LLL] (Cbz-Leu-Leu-Leu-aldehyde), in experiment [2], the “block of cyclin D1 downregulation by IR” value is “completely block” and the “effect on cyclin E protein levels” value was “without any effect”. The “IR-induced reduction of CDK2 activity” value in experiment [3] is on record as “blocked”.
Take `N.N.[Cl][Pt][Cl]` [cis-platin]: in the experiment with cyclin D1 protein, the “cyclin D1 degradation in response to genotoxic agent” value is reported as “rapidly degraded”.
“K112E: cyclin D1 mutated within the cyclin box at a site essential for activation of CDK4/6”: the “degradation by IR” value with MCF-7 cells was “remained”.
The same measure, in the same setting: under “T286A: cyclin D1 mutant in which the GSK3-β phosphorylation site was mutated” stands “fully responsive”.
